Source: patent publication US4250259A, “Microbiological production of ketones from C3 -C6 secondary alcohols” (priority 1979, dated 1981)
Entries after “also recorded” stand apart in the source; their conditions may differ.

How the values were obtained:
[1] = test system: cell suspensions of C1-utilizers; experiment: studies on production of 2-butanone from 2-butanol by cell suspensions of the strains tested; type: cell-based; settings: for rate of oxidation of secondary alcohols by strains of C1-utilizers: cell suspensions
Source text: The following summarizes tests conducted on the optimal conditions for the production of methyl ketones from C3 -C6 sec. alcohols.
The substrate specificity for the oxidation of C3 -C6 secondary alcohols by the strains of C1 -utilizers was studied.

[2] = test system: Pseudomonas sp. ATCC 21439 (Obligate); experiment: sec-alcohols to ketones by resting cell suspensions; type: cell-based; settings: methanol-grown cells
Experimental: (§1) The pH of the nutrient medium was adjusted to 7.0 by the addition of acid or base and 50 ml. samples of the nutrient medium were charged into a plurality of 300 ml. shaker flasks. The shaker flasks were inoculated with an inoculating loop of cells from an agar plate containing homogeneous colonies of the microorganisms on the plate (the purity of the isolates was confirmed by microscopic examination). The isolates had been maintained on methanol (0.4% V/V) agar plates or on agar plates under an atmosphere of methane and air having a 1:1 V/V gas ratio which had been transferred every two weeks. For growth on methanol, the medium was supplemented with 0.4% methanol. For growth on methane, the gaseous phase of the inoculated flasks was replaced with a gas mixture comprised of methane and air having a ratio of 1:1 on a V/V basis. The inoculated flasks were sealed air-tight and were incubated on a rotary shaker of orbital radius 2.5 cm. at 250 rpm and at 30° C. for two days until turbidity in the medium had developed. The cells were harvested by centrifugation at 10,000×g. at 4° C. for 30 minutes. The cell pellet was washed twice with a 0.05 M phosphate buffer at a pH of 7.0 (containing 0.02 M MgCl2). The washed cells were then suspended in a 0.05 M phosphate buffer at pH 7.0.
(§2) A 0.5 ml. sample of each washed cell suspension (2 mg. cells) was put into 10 ml. vials at 4° C. which were sealed with a rubber cap. The gaseous phase of the vials was removed with vacuum and then was replaced with a gas mixture of the substrate reactant (i.e., alkane or secondary alcohol) and oxygen at a 1:1 V/V ratio. (In the case of a liquid substrate, i.e., secondary alcohol, 10 μl of the substrate was put in the 10 ml. vials). […] Samples of product (1-3 μl) were withdrawn periodically with a microsyringe and the products were analyzed by gas chromatography (ionization flame detector column).
(§3) The procedure in Example 1 was repeated except that a plurality of methanol-utilizing methylotrophic microorganisms were each aerobically grown in a methanol-containing nutrient medium instead of a methane-containing medium. The nutrients in the medium were the same as indicated in Example 1 except that 0.4% V/V methanol was used as the alcohol dehydrogenase inducer and as the major carbon and energy source for growth. The cells were harvested and washed as described in Example 1. The resting microbial cells of the induced methanol-grown methanol-utilizing methylotrophic microorganisms were then contacted with C3 -C6 secondary alcohols in a buffered solution by the procedure of Example 1.

[3] = test system: Pseudomonas MS ATTC 25262 (Facultative); experiment: as above; type: cell-based; settings: methanol-grown cells
Experimental: as §1, §2, §3

[4] = test system: Hansenula polymorpha ATCC 26012; experiment: sec-alcohols to ketones by cell suspensions of yeasts; type: cell-based
[5] = test system: purified secondary alcohol dehydrogenase (SADH); experiment: substrate specificity and Michaelis constants of purified SADH; type: biochemical, Pseudomonas sp. ATCC 21439
[6] = test system: secondary alcohol dehydrogenase (SADH), cell-free soluble extract; experiment: oxidation of sec-alcohols by cell-free soluble extracts; type: biochemical, Methylosinus trichosporium OB3b (NRRL B-11,196); settings: for Oxidation Rate, sec-alcohol to corresponding ketone: soluble crude extract, grown on methanol
Experimental: To prepare the cell-free secondary alcohol dehydrogenase (SADH) system, the washed cells were disrupted with a Wave Energy Ultrasonic Oscillator, Model W201 (Wave Energy System, Inc., Newtown, Pa.) and centrifuged at 20,000×g. for 30 minutes. […] The enzyme activity was measured with a fluorescence spectrophotometer (Perkin Elmer, Model MPF 44A) by following the formation of reduced NAD (EX 340 nm, Em 460 nm). The formation of reduced NAD was also followed with an absorption spectrophotometer at 340 nm. The assay system (3 ml.) contained: potassium phosphate buffer pH 7.0; 150 μmol.; NAD 1 μmol.; a given amount of enzyme preparation; and secondary alcohol 10 μmol. The reaction was started by the addition of substrate. One unit of enzyme activity represents the reduction of one μmole NAD per minute. Protein concentrations were determined by the Lowry method (J. Biol. Chem., 193: 255-275 (1951)).
The experimental procedure for the tests reported in Table VIII were as follows: 1 mg protein of crude extract was added into a 0.5 ml. 0.05 M phosphate buffer (pH 7.0) in a 10-ml. vial. […] The reaction mixture was incubated at 30° C. on a water bath. A 3 μl sample was removed with a syringe at 15 min. of incubation and was assayed with g.l.c. Catalytic activity was also assayed by fluorescence spectrophotometry.

[7] = test system: Methylobacterium organophilum XX (ATCC 27886); experiment: sec-alcohols to ketones by resting cell suspensions; type: cell-based
Experimental: as §1, §2
(§4) The procedure in Example 1 was repeated wherein a plurality of the methane-utilizing methylotrophic microorganisms were each grown aerobically in a nutrient medium containing methane as the alcohol dehydrogenase enzyme inducer and as the major carbon and energy source for growth. The cells were harvested and washed as described in Example 1. The resting microbial cells of the induced methane-grown methane-utilizing methylotrophic microorganisms were then contacted with C3 -C6 secondary alcohols in a buffered solution by the procedure of Example 1.
(§5) In this example, the procedure in Example 1 was repeated except that a plurality of methane-utilizing methylotrophic microorganisms were each aerobically grown in a methanol-containing nutrient medium instead of a methane-containing medium. The nutrients in the medium were the same as indicated in Example 1 except that 0.4% V/V methanol was used as the alcohol dehydrogenase inducer and major source of carbon and energy for growth. Following growth, the cells were harvested and washed as described in Example 1.
(§6) The resting cells of the induced methanol-grown methylotrophic microorganisms were then contacted with secondary alcohols in a buffered solution by the procedure described in Example 1.
(§7) The procedure in Example 1 was repeated except that the methylotrophic microorganisms were each aerobically grown in an alcohol dehydrogenase-inducing growth medium containing methylamine or methyl formate as the alcohol dehydrogenase enzyme inducer and growth substrate instead of methane. The nutrients in the medium were the same as indicated in Example 1 except that 0.4% V/V of the alcohol dehydrogenase-inducer growth substrate was used as the major carbon and energy source. The cells were harvested and washed as described in Example 1. The resting microbial cells were then contacted with C3 -C6 secondary alcohols in a buffered solution by the conversion procedure of Example 1.

[8] = test system: Methylosinus trichosporium OB3b (NRRL B-11,196); experiment: as above; type: cell-based
Experimental: as §1, §2, §4, §5, §6, §7

[9] = test system: Methanomonas methylovora ATCC 21852 (Obligate); experiment: as above; type: cell-based
Experimental: as §1, §2, §3, §7

SMILES | rate of oxidation of secondary alcohols by strains of C1-utilizers [1] | Conversion Rates, sec-alcohol to corresponding ketone [2] | Conversion Rates, sec-alcohol to corresponding ketone [3] | Conversion Rate, sec-alcohol to corresponding ketone ([4]; Growth Substrate Ethanol) | Conversion Rate, sec-alcohol to corresponding ketone ([4]; Growth Substrate Methanol) | Conversion Rate, sec-alcohol to corresponding ketone ([4]; Growth Substrate Methylamine) | Conversion Rate, sec-alcohol to corresponding ketone ([4]; Growth Substrate Methylformate) | Conversion Rate, sec-alcohol to corresponding ketone ([4]; Growth Substrate Propylamine) | oxidation by purified SADH [5] | Oxidation Rate, sec-alcohol to corresponding ketone [6] | Conversion Rates, sec-alcohol to corresponding ketone ([7]; cells grown on methane) | Conversion Rates, sec-alcohol to corresponding ketone ([7]; cells grown on methanol) | Conversion Rates, sec-alcohol to corresponding ketone ([7]; methyl formate-grown cells) | Conversion Rates, sec-alcohol to corresponding ketone ([8]; cells grown on methane) | Conversion Rates, sec-alcohol to corresponding ketone ([8]; cells grown on methanol) | Conversion Rates, sec-alcohol to corresponding ketone ([8]; methyl formate-grown cells) | Conversion Rates, sec-alcohol to corresponding ketone ([9]; methanol-grown cells) | Conversion Rates, sec-alcohol to corresponding ketone ([9]; methyl formate-grown cells) | Conversion Rates, sec-alcohol to corresponding ketone ([9]; methylamine-grown cells) | other results
CCC(C)O (stereo not shown) [2-Butanol, 2-butanol] | highest rate; also recorded: higher rates | 4.7 μmoles/hr/mg protein | 3.5 μmoles/hr/mg protein | 4.8 μmoles/hr/mg of protein | 5.8 μmoles/hr/mg of protein | 4.5 μmoles/hr/mg of protein | 5.2 μmoles/hr/mg of protein | 4.0 μmoles/hr/mg of protein | highest | 2.4 nmole/min/mg protein | 2.5 μmoles/hr/mg protein | 2.8 μn moles/hr/mg protein | 3.5 μmoles/hr/mg protein | 3.7 μmoles/hr/mg protein | 4.1 μn moles/hr/mg protein | 4.5 μmoles/hr/mg protein | 2.5 μmoles/hr/mg protein | 2.1 μmoles/hr/mg protein | 3.2 μmoles/hr/mg protein | 2-butanol concentration supporting maximum 2-butanone production ([1]; cell suspensions of yeast and Pseudomonas sp. ATCC 21,439, 35 min. incubation): about 50 μmoles; Conversion Rate, 2-butanol to 2-butanone ([6]; Growth Substrate CH3 NH2): 2.5 nmoles/min/mg protein; Conversion Rate, 2-butanol to 2-butanone ([6]; Growth Substrate CH3 OH): 2.4 nmoles/min/mg protein; Conversion Rate, 2-butanol to 2-butanone ([6]; Growth Substrate CH4): 4.5 nmoles/min/mg protein; Conversion Rate, 2-butanol to 2-butanone ([6]; Growth Substrate HCOOCH3): 2.0 nmoles/min/mg protein
CC(C)O [2-Propanol, 2-propanol] | higher rates | 7.4 μmoles/hr/mg protein | 0.80 μmoles/hr/mg protein | 5.0 μmoles/hr/mg of protein | 5.9 μmoles/hr/mg of protein | 5.2 μmoles/hr/mg of protein | 5.6 μmoles/hr/mg of protein | 4.1 μmoles/hr/mg of protein | highest | 2.0 nmole/min/mg protein | 0.5 μmoles/hr/mg protein | 0.70 μn moles/hr/mg protein | 0.48 μmoles/hr/mg protein | 0.25 μmoles/hr/mg protein | 0.30 μn moles/hr/mg protein | 0.95 μmoles/hr/mg protein | 0.28 μmoles/hr/mg protein | 0.62 μmoles/hr/mg protein | 0.82 μmoles/hr/mg protein | 
